Consider 23 compounds from US20100267728A1, “3-SUBSTITUTED-1,2,3-TRIAZIN-4-ONE'S AND 3 SUBSTITUTED 1,3-PYRIMIDINONE'S FOR ENHANCING GLU[…] RESPONSES” (CORTEX PHARMACEUTICALS, INC., priority 2007, published 2010).

For data set [1], the system named is AMPA receptor. The data set can be described thus: In vitro patch clamp electrophysiology assay: glutamate-induced whole-cell current in cultured cortical neurons. In kind it is cell-based. The settings on record: rat cortical neurons, 500 μM glutamate. The protocol:
Cortical cells were prepared from day 18-19 embryonic Sprague-Dawley rats and recorded after 3 days in culture. The extracellular solution (ECS) contained (in mM): NaCl (145), KCl (5.4), HEPES (10), MgCl2 (0.8), CaCl2 (1.8), glucose (10), sucrose (30); pH. 7.4. In order to block the voltage-gated sodium currents, 40 nM TTX was added to the recording solution. The intracellular solution contained (in mM): K-gluconate (140), HEPES (20), EGTA (1.1), phosphocreatine (5), MgATP (3), GTP (0.3), MgCl2 (5), and CaCl2 (0.1); pH: 7.2. All test compound and glutamate solutions were made-up in the extracellular solution.
The whole-cell current was measured with patch-clamp amplifier (Axopatch 200B), filtered at 2 kHz, digitized at 5 kHz and recorded on a PC with pClamp 8. The cells were voltage-clamped at −80 mV. Solutions were applied by DAD-12 system. A baseline response for each cell was recorded using a 1 s pulse of 500 μM glutamate dissolved in ECS. Responses to test compound were then determined by application of a 10 s pulse of test compound followed by a 1 s pulse of the same concentration of test compound plus 500 μM glutamate and then 10 s of saline. This pulse sequence was repeated until a stable reading was obtained, or until sufficient data points were measured to allow extrapolation to a calculated maximum change.
The mean value of plateau current between 600 ms to 900 ms after application of glutamate or test compound plus glutamate was calculated and used as the parameter to measure the drug effect. The plateau responses in the presence of varying concentrations of test compound were divided by the baseline response in order to calculate the percentage increase. Compounds are deemed active in this test if, at a test concentration of 3 μM or less, they produce a greater than 100% increase in the value of the steady-state current measured due to application of glutamate alone. The concentration at which the glutamate induced current is increased by 100% is commonly referred to as the EC2x value.
On the technique in general: The patch-clamp technique gives a direct electrical read-out from membranes.

Data set [2] concerns AMPA receptor. The data set can be described thus: Rat hippocampal slice assay: field EPSP amplitude in CA1. In kind it is cell-based. The protocol:
In another test, excitatory responses (field EPSPs) were measured in hippocampal slices, which were maintained in a recording chamber continuously perfused with artificial cerebrospinal fluid (ACSF). During a 15-30 minute interval, the perfusion medium was switched to one containing various concentrations of the test compounds. Responses collected immediately before and at the end of drug perfusion were superimposed in order to calculate the percent increase in EPSP amplitude.
To obtain data for the activity of invention compounds on synaptic responses, a bipolar nichrome stimulating electrode was positioned in the dendritic layer (stratum radiatum) of the hippocampal subfield CA1 close to the border of subfield CA3. Current pulses (0.1 msec) through the stimulating electrode activate a population of the Schaffer-commissural (SC) fibers, which arise from neurons in the subdivision CA3 and terminate in synapses on the dendrites of CA1 neurons. Activation of these synapses causes them to release the transmitter glutamate. Glutamate binds to post-synaptic AMPA receptors, which then transiently open an associated ion channel and permit a sodium current to enter the postsynaptic cell. This current results in a voltage in the extracellular space (the field EPSP), which is recorded by a high impedance recording electrode positioned in the middle of the stratum radiatum of CA1.
The intensity of the stimulation current was adjusted to produce half-maximal EPSPs (typically about 1.5-2.0 mV). Paired stimulation pulses were given every 40 sec with an interpulse interval of 200 msec, as described further in Example 30.
Hippocampal slices were maintained in a recording chamber continuously perfused with artificial cerebrospinal fluid (ACSF). During 15-30 minute intervals, the perfusion medium was switched to one containing various concentrations of the test compounds. Responses collected immediately before and at the end of drug perfusion were superimposed in order to calculate the percent increase in EPSP amplitude.
To conduct these tests, the hippocampus was removed from anesthetized, 2 month old Sprague-Dawley rats and in vitro slices (400 μm thick) were prepared and maintained in an interface chamber at 35° C. using conventional techniques [see, for example, Dunwiddie and Lynch, J. Physiol. 276: 353-367 (1978)]. The chamber was constantly perfused at 0.5 mL/min with ACSF containing (in mM): NaCl 124, KCl 3, KH2PO4 1.25, MgSO4 2.5, CaCl2 3.4, NaHCO3 26, glucose 10 and L-ascorbate 2. A bipolar nichrome stimulating electrode was positioned in the dendritic layer (stratum radiatum) of the hippocampal subfield CA1 close to the border of subfield CA3.
Current pulses (0.1 msec) through the stimulating electrode activate a population of the Schaffer-commissural (SC) fibers, which arise from neurons in the subdivision CA3 and terminate in synapses on the dendrites of CA1 neurons. Activation of these synapses causes them to release the transmitter glutamate. Glutamate binds to the post-synaptic AMPA receptors, which then transiently open an associated ion channel and permit a sodium current to enter the postsynaptic cell. This current results in a voltage in the extracellular space (the field EPSP) which is recorded by a high impedance recording electrode positioned in the middle of the stratum radiatum of CA1. The intensity of the stimulation current was adjusted to produce half-maximal EPSPs (typically about 1.5-2.0 mV). Paired stimulation pulses were given every 40 s with an interpulse interval of 200 msec (see below). The field EPSPs of the second response were digitized and analyzed to determine amplitude. If the responses were stable for 15-30 min (baseline), test compounds were added to the perfusion lines for a period of about 15 min. The perfusion was then changed back to regular ACSF. […]

The test system of data set [3] is AMPA receptor. The data set can be described thus: In vivo electrophysiology: field EPSP in dentate gyrus of anesthetized animals. Also noted: species or system rat. The protocol: Animals are maintained under anesthesia by phenobarbital administered using a Hamilton syringe pump. Stimulating and recording electrodes are inserted into the perforant path and dentate gyrus of the hippocampus, respectively. Once electrodes are implanted, a stable baseline of evoked responses are elicited using single monophasic pulses (100 μs pulse duration) delivered at 3/min to the stimulating electrode. Field EPSPs are monitored until a stable baseline is achieved (about 20-30 min), after which a solution of test compound in HPCD is injected intraperitoneally and evoked field potentials are recorded. Evoked potentials are recorded for approximately 2 h following drug administration or until the amplitude of the field EPSP returns to baseline. In the latter instance, it is common that an iv administration is also carried out with an appropriate dose of the same test compound.

For `C[C@H](Cn1cncn1)n1nnc2cc3c(=O)n(C4CC4)nnc3cc2c1=O`, the melting point – broadly, the temperature, or range, at which the solid turns liquid – was 195 to 199 °C.

In turn, `CC(Cn1cccn1)n1nnc2cc3c(=O)n(C4CC4)nnc3cc2c1=O` (stereo not shown) came in with a melting point of 178 to 180 °C.

In the case of `CC(Cn1ncnn1)n1nnc2cc3c(=O)n(C(C)Cn4ncnn4)nnc3cc2c1=O` (stereo not shown), the melting point lay within 223 to 226 °C.

Take `CC(Cn1cnnn1)n1nnc2cc3c(=O)n(C(C)Cn4ncnn4)nnc3cc2c1=O` (stereo not shown): the melting point lay in the range of 204 to 206 °C.

The compound `CC(Cn1cnnn1)n1cnc2cc3c(=O)n(C4CC4)nnc3cc2c1=O` (stereo not shown) yielded a melting point of 245 to 246 °C.

In the case of `CCC(Cn1ncnn1)n1cnc2cc3c(=O)n(C4CC4)nnc3cc2c1=O` (stereo not shown), the melting point lay in the range of 160 to 161 °C.

Take `CCC(Cn1cnnn1)n1cnc2cc3c(=O)n(C4CC4)nnc3cc2c1=O` (stereo not shown): the melting point was in the range of 213 to 214 °C.

`CCC(Cn1nccn1)n1cnc2cc3c(=O)n(C4CC4)nnc3cc2c1=O` (stereo not shown) gave a melting point of 129 to 130 °C.

For the compound `CCC(Cn1ccnn1)n1cnc2cc3c(=O)n(C4CC4)nnc3cc2c1=O` (stereo not shown), the melting point was 215 to 217 °C.

`C#CCn1nnc2cc3c(=O)n(C(C)Cn4ncnn4)cnc3cc2c1=O` (stereo not shown) came in with a melting point of 222 to 223 °C.

`C#CCn1nnc2cc3c(=O)n(C(C)Cn4cnnn4)cnc3cc2c1=O` (stereo not shown): the melting point was 218 to 219 °C.

On to `CC[C@H](Cn1cnnn1)n1cnc2cc3c(=O)n([C@H](C)Cn4ncnn4)nnc3cc2c1=O`, for which the melting point was 198 to 200 °C.

As to `CC[C@H](Cn1nnc(C)n1)n1cnc2cc3c(=O)n([C@H](C)Cn4ncnn4)nnc3cc2c1=O`, the melting point fell in the range of 140 to 141 °C.

Compound `CC[C@H](Cn1nnnc1C)n1cnc2cc3c(=O)n([C@H](C)Cn4ncnn4)nnc3cc2c1=O` displayed a melting point of 238 to 240 °C.

On to `CC[C@H](Cn1cnnn1)n1cnc2cc3c(=O)n([C@H](CC)Cn4cnnn4)nnc3cc2c1=O`, for which the melting point was 80 to 81 °C.

Compound `C[C@H](Cn1cccn1)n1cnc2cc3c(=O)n([C@H](C)Cn4cc(Cl)cn4)cnc3cc2c1=O` returned a melting point of 231 to 232 °C.

Compound `C[C@H](Cn1cnnn1)n1nnc2cc3c(=O)n([C@H](C)Cn4ncnn4)nnc3cc2c1=O` yielded a melting point of 160 to 161 °C.

In the case of `C[C@H](Cn1ncnn1)n1nnc2cc3c(=O)n(C4CC4)nnc3cc2c1=O` [Example 1, 3-Cyclopropyl-8-[(1R)-1-methyl-2-(2H-tetrazol-2-yl)ethyl]-3,8-dihydro[1,2,3]triazino[4,5-g][1,2,3]-benzotriazine-4,9-dione], the “In vitro Patch Clamp Electrophysiology EC2x (concentration at which the glutamate induced current is increased by 100%)” value in the data set with AMPA receptor [1] is reported as 0.28 μM. In addition, the “% increase in the amplitude of the field EPSP in the CA1 region of rat hippocampal slice” value (from here on “% increase … of rat hippocampal slice”) in the data set on AMPA receptor [2] (@ 3 μM) was found to be 69% @ 3 μM. Besides, in the data set on AMPA receptor [3] (@ 5 mpk i.p.), the “% increase in the amplitude of the field EPSP in rat dentate gyrus” value (“% increase … in rat dentate gyrus” below) turned out to be 37%^3.

For the compound `C[C@H](Cn1ncnn1)n1nnc2cc3c(=O)n(C)nnc3cc2c1=O` [Example 4, 3-Methyl-8-[(2R)-1-(2H-tetrazol-2-yl)propan-2-yl]-3,8-dihydrobenzo[1,2-d:4,5-d′]bis[1,2,3]triazine-4,9-dione], in the data set on AMPA receptor [1], the “In vitro Patch Clamp Electrophysiology EC2x (concentration at which the glutamate induced current is increased by 100%)” value was 0.28 μM. For the same compound, in the data set with AMPA receptor [2] (@ 3 μM), the “% increase … of rat hippocampal slice” value is recorded as 18% @ 3 μM. Moreover, the “% increase … in rat dentate gyrus” value with AMPA receptor [3] (@ 5 mpk i.p.) came to 46%^3.

On to `COCCn1nnc2cc3c(=O)n([C@H](C)Cn4ncnn4)nnc3cc2c1=O` [Example 18, 3-(2-Methoxyethyl)-8-[(2R)-1-(2H-tetrazol-2-yl)propan-2-yl]-3,8-dihydrobenzo[1,2-d: 4,5-d′]bis[1,2,3]triazine-4,9-dione], for which the “% increase … of rat hippocampal slice” value in the data set on AMPA receptor [2] (@ 10 μM) was 35% @ 10 μM. The “% increase … in rat dentate gyrus” value in the data set with AMPA receptor [3] (@ 5 mpk i.p.) turned out to be 34%^3.

On to `C[C@H](Cn1ncnn1)n1nnc2cc3c(=O)n(CC#N)nnc3cc2c1=O` [Example 22, {4,9-Dioxo-8-[(2R)-1-(2H-tetrazol-2-yl)propan-2-yl]-8,9-dihydrobenzo[1,2-d:4,5-d′]bis[1,2,3]triazin-3(4H)-yl}acetonitrile], for which the “In vitro Patch Clamp Electrophysiology EC2x (concentration at which the glutamate induced current is increased by 100%)” value in the data set on AMPA receptor [1] was found to be 0.24 μM. The “% increase … of rat hippocampal slice” value in the data set with AMPA receptor [2] (@ 3 μM) is 24% @ 3 μM. For the same compound, the “% increase … in rat dentate gyrus” value in the data set on AMPA receptor [3] (@ 5 mpk i.p.) stood at 42%^3.

Turning to `C[C@H](Cn1ncnn1)n1cnc2cc3c(=O)n(C4CC4)nnc3cc2c1=O` [Example 53, 3-Cyclopropyl-8-[(2R)-1-(2H-tetrazol-2-yl)propan-2-yl]-3,8-dihydro[1,2,3]triazino[4,5-g]quinazoline-4,9-dione], the “In vitro Patch Clamp Electrophysiology EC2x (concentration at which the glutamate induced current is increased by 100%)” value in the data set on AMPA receptor [1] is recorded as 0.60 μM. Moreover, the “% increase … of rat hippocampal slice” value in the data set on AMPA receptor [2] (@ 10 μM) turned out to be 55% @ 10 μM. In addition, the “% increase … in rat dentate gyrus” value in the data set on AMPA receptor [3] (@ 5 mpk i.p.) is 33%^3.

Take `C[C@H](Cn1ncnn1)n1nnc2cc3c(=O)n([C@H](C)Cn4ncnn4)nnc3cc2c1=O` [Example 80, 3,8-Bis[(2R)-1-(2H-tetrazol-2-yl)propan-2-yl]-3,8-dihydrobenzo[1,2-d:4,5-d′]bis[1,2,3]triazine-4,9-dione]: the “In vitro Patch Clamp Electrophysiology EC2x (concentration at which the glutamate induced current is increased by 100%)” value in the data set with AMPA receptor [1] is 0.016 μM. In addition, the “% increase … of rat hippocampal slice” value with AMPA receptor [2] (@ 3 μM) was 65% @ 3 μM. For the same compound, in the data set with AMPA receptor [3] (@ 1 mpk i.p.), the “% increase … in rat dentate gyrus” value amounted to 59%^4.
